The source of these data is patent US9150583B2 (Boehringer Ingelheim International GmbH, priority 2011, dated 2015).

Data set [1] in a line: Assay for metabolic degradation. It is filed as in vitro ADME. Particulars: pH 7.6; pooled human liver microsomes, 37° C., microsomal protein 1 mg/ml, test compound 1 μM, NADPH 1 mM; read-out: half-life (t½) values for human liver microsomal metabolic degradation. How it is done:
Assay for Metabolic Degradation
The metabolic degradation of the test compound is assayed at 37° C. with pooled human liver microsomes. The final incubation volume of 100 μl per time point contains TRIS buffer pH 7.6 at room temperature (0.1 M), magnesium chloride (5 mM), microsomal protein (1 mg/ml) and the test compound at a final concentration of 1 μM.
Following a short preincubation period at 37° C., the reactions were initiated by addition of beta-nicotinamide adenine dinucleotide phosphate, reduced form (NADPH, 1 mM) and terminated by transferring an aliquot into solvent after different time points. Additionally, the NADPH-independent degradation was monitored in incubations without NADPH, terminated at the last time point. The quenched incubations are pelleted by centrifugation (10000 g, 5 min). An aliquot of the supernatant is assayed by LC-MS/MS for the amount of parent compound. The half-life (t ½) is determined by the slope of the semilogarithmic plot of the concentration-time profile.

The target of data set [2] is Recombinant human CETP (Homo sapiens (Human), UniProt P11597). Briefly: CETP in vitro assay (fluorometric, Roar Biomedical). It is filed as biochemical. The conditions noted are these: 3 hours at 37° C., compound concentrations between 1 nM and 30 μM, read-out: IC50 values for inhibition of CETP. How it is done: CETP inhibitory activity of compounds of the present invention can be determined in a fluorometric assay purchased from Roar Biomedical, Inc. (New York, N.Y., USA). […] Recombinant human CETP was partially purified from medium conditioned by CETP expressing CHO cells. In a 384 well format 2.5 μl of compound solution in DMSO was combined with 2 μl of donor solution, 2 μl of acceptor solution and 0.8 μl of recombinant human CETP solution in a total volume of 100 μl with assay buffer and incubated for 3 hours at 37° C. The fluorescence intensity was measured at excitation wavelength of 485 nm and emission wavelength of 535 nm. IC50 values are calculated from dose effect curves from compound concentrations between 1 nM and 30 μM.
Sequence of Recombinant human CETP (P11597 18-493): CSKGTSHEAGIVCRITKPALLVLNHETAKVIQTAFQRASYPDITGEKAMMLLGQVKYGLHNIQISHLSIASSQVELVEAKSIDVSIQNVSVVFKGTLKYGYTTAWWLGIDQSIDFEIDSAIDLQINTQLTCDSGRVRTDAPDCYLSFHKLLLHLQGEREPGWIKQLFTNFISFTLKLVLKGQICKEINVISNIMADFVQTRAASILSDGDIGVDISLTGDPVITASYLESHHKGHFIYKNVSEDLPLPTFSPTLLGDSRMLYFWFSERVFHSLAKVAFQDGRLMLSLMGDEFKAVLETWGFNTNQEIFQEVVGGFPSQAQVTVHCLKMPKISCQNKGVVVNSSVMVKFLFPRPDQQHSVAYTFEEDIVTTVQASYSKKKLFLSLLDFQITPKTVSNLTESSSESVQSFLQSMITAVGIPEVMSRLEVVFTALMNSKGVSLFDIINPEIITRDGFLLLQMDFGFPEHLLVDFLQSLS

What is called half-life is the time needed for the level to fall by half in the phase considered. A word on the IC50: it is the concentration needed to halve the response being measured. For the molecule `CC(C)c1nc2c(c3c1[C@@H](c1ccc(C(F)(F)F)cc1)OC31CCOCC1)[C@@H](O)CC1(CC1)C2` [Example 1, (3R,9S)-4-isopropyl-7,7-(ethan-1,2-diyl)-3-(4-(trifluoromethyl)phenyl)-2′,3′,5′,6,6′,7,8,9-octahydro-3H-spiro[furo[3,4-c]quinoline-1,4′-pyran]-9-ol], the half-life at 1 μM in data set [1] was more than 2.17 h. For the same molecule, in data set [2], the IC50 stood at 0.015 µM.

On to `CC(C)c1nc2c(c3c1[C@@H](c1ccc(C(F)(F)F)c(C#N)c1)OC31CCOCC1)[C@@H](O)CC1(CC1)C2` [Example 2], for which, in data set [1], the half-life at 1 μM was more than 2.17 h. Moreover, in data set [2], the concentration for half-maximal inhibition (IC50) was determined as 0.018 µM.

Turning to `COc1cc([C@H]2OC3(CCOCC3)c3c2c(C(C)C)nc2c3[C@@H](O)CC3(CC3)C2)ccc1C(F)(F)F` [Example 3, (3R,9S)-4-isopropyl-7,7-(ethan-1,2-diyl)-3-(3-methoxy-4-(trifluoromethyl)phenyl)-2′,3,5′,6,6,7,8,9-octahydro-3H-spiro[furo[3,4-c]quinoline-1,4′-pyran]-9-ol], in data set [2], the IC50 worked out at 0.011 µM.

As to `CC(C)c1nc2c(c3c1[C@@H](c1ccc(C(F)(F)F)nc1)OC31CCOCC1)[C@@H](O)CC1(CC1)C2` [Example 4], in data set [2], the IC50 came to 0.09 µM.

In the case of `CC(C)c1nc2c(c3c1[C@@H](c1ccc(C(F)(F)F)cc1)OC31CCOCC1)[C@@H](O)CC1(CC1)[C@H]2O` [Example 5, (3R,6R,9S)-4-isopropyl-7,7-(ethan-1,2-diyl)-3-(4-(trifluoromethyl)phenyl)-2′,3′,5′,6,6′,7,8,9-octahydro-3H-spiro[furo[3,4-c]quinoline-1,4′-pyran]-6,9-diol], the half-life at 1 μM in data set [1] worked out at 0.95 h. Besides, in data set [2], the half-inhibitory concentration (IC50) came out at 0.009 µM.

Consider `CC(C)c1nc2c(c3c1[C@@H](c1ccc(C(F)(F)F)c(C#N)c1)OC31CCOCC1)[C@@H](O)CC1(CC1)[C@H]2O` [Example 6, 5-((3R,6R,9S)-6,9-dihydroxy-4-isopropyl-7,7-(ethan-1,2-diyl)-2′,3′,5′,6,6′,7,8,9-octahydro-3H-spiro[furo[3,4-c]quinoline-1,4′-pyran]-3-yl)-2-(trifluoromethyl)benzonitrile], for which, in data set [2], the half-maximal inhibitory concentration (IC50) amounted to 0.043 µM.

On to `COc1cc([C@H]2OC3(CCOCC3)c3c2c(C(C)C)nc2c3[C@@H](O)CC3(CC3)[C@H]2O)ccc1C(F)(F)F` [Example 7, (3R,6R,9S)-4-isopropyl-7,7-(ethan-1,2-diyl)-3-(3-methoxy-4-(trifluoromethyl)phenyl)-2′,3′,5′,6,6′,7,8,9-octahydro-3H-spiro[furo[3,4-c]quinoline-1,4′-pyran]-6,9-diol], for which, in data set [2], the IC50 came out at 0.011 µM.

For the molecule `CC(C)c1nc2c(c3c1[C@@H](c1ccc(C(F)(F)F)nc1)OC31CCOCC1)[C@@H](O)CC1(CC1)[C@H]2O` [Example 8, (3R,6R,9S)-4-isopropyl-7,7-(ethan-1,2-diyl)-3-(6-(trifluoromethyl)pyridin-3-yl)-2′,3′,5′,6,6′,7,8,9-octahydro-3H-spiro[furo[3,4-c]quinoline-1,4′-pyran]-6,9-diol], the half-life at 1 μM in data set [1] is more than 2.17 h.
